≈ marks a conversion by molar mass, not a printed value.
Key:
Assay in all cases: ≥ marks a high value that may be exact or a test limit, other limits are often not marked, values filed in µg/mL are converted to µM
[1] = test system: Acinetobacter baumannii ATCC 15308
[2] = test system: Citrobacter sp.
[3] = test system: Enterobacter cloacae
[4] = test system: Escherichia coli ATCC 25922
[5] = test system: Klebsiella pneumoniae
[6] = test system: Pseudomonas aeruginosa ATCC 15442
[7] = test system: Staphylococcus aureus ATCC 25923
[8] = test system: Staphylococcus aureus
[9] = test system: Streptococcus pneumoniae
[10] = test system: Bacillus subtilis SMY
[11] = test system: Bacillus subtilis
[12] = test system: Candida albicans
[13] = test system: Cryptococcus neoformans
[14] = test system: Escherichia coli ATCC 23716
[15] = test system: Escherichia coli
[16] = test system: Pseudomonas putida
[17] = test system: Saccharomyces cerevisiae
[18] = test system: Salmonella typhimurium
[19] = test system: Serratia marcescens
[20] = test system: Streptococcus mutans
[21] = test system: Acinetobacter baumannii
[22] = test system: Bacillus subtilis ATCC 6633
[23] = test system: Candida albicans ATCC 90112
[24] = test system: Enterococcus faecalis
[25] = test system: Escherichia coli NBRC 14237
[26] = test system: Micrococcus luteus ATCC 10240
[27] = test system: Micrococcus luteus NBRC 12708
[28] = test system: Morganella morganii
[29] = test system: Proteus mirabilis
[30] = test system: Pseudomonas aeruginosa ATCC 27853
[31] = test system: Saccharomyces cerevisiae NBRC 10217
[32] = test system: Shigella boydii
[33] = test system: Staphylococcus aureus NBRC 12732
[34] = test system: Stenotrophomonas maltophilia ATCC 13637
[35] = test system: Streptococcus agalactiae
[36] = test system: Streptococcus pyogenes
[37] = test system: Bacillus cereus NCLM 2156
[38] = test system: Escherichia coli NCLM 2064
[39] = test system: Pseudomonas aeruginosa ATCC 10145
[40] = test system: Vibrio cholerae PL91
[41] = test system: Bacillus cereus ATCC 11778
[42] = test system: Klebsiella pneumoniae ATCC 700603
[43] = test system: Salmonella enterica subsp. enterica serovar Enteritidis ATCC 13076
[44] = test system: Serratia marcescens ATCC 21202
[45] = test system: Staphylococcus aureus ATCC 29213
[46] = test system: Streptococcus pyogenes ATCC 19615

SMILES: CC[C@H](C)[C@H](NC(=O)[C@H](CC(C)C)NC(=O)CNC(=O)CNC(=O)[C@H](CC(C)C)NC(=O)[C@@H](N)Cc1ccccc1)C(=O)N[C@@H](CCCCN)C(=O)N1CCC[C@H]1C(=O)N[C@@H](Cc1c[nH]c2ccccc12)C(=O)N[C@@H](Cc1c[nH]c2ccccc12)C(=O)N1CCC[C@H]1C(=O)N[C@@H](Cc1c[nH]c2ccccc12)C(=O)N[C@@H](CCCN=C(N)N)C(=O)N[C@@H](CCCN=C(N)N)C(N)=O [FLGGLIKPWWPWRR]
- MIC [1]: ≥ 69 µM
- MIC [2]: ≥ 138 µM
- MIC [3]: ≥ 138 µM
- MIC [4]: 17.2 µM (≈ 31.2 µg/mL)
- MIC [5]: > 138 µM
- MIC [6]: ≥ 34.5 µM
- MIC [7]: 17.2 µM (≈ 31.2 µg/mL)
- MIC [8]: 17.2 µM (≈ 31.2 µg/mL)
- MIC [9]: 17.2 µM (≈ 31.2 µg/mL)

SMILES: CC(C)C[C@H](NC(=O)[C@H](CC(C)C)NC(=O)[C@H](CCCN=C(N)N)NC(=O)[C@H](Cc1cnc[nH]1)NC(=O)[C@@H](NC(=O)[C@H](CCCN=C(N)N)NC(=O)CNC(=O)[C@@H](NC(=O)[C@@H]1CCCN1C(=O)[C@@H](N)Cc1ccccc1)C(C)C)C(C)C)C(=O)N[C@@H](CCCN=C(N)N)C(=O)N[C@@H](CCCCN)C(=O)O [FPVGRVHRLLRK]
- MIC [10]: ≥ 173 µM
- MIC [11]: 21.7 µM (≈ 32 µg/mL)
- MIC [12]: 21.7 µM (≈ 32 µg/mL)
- MIC [13]: ≥ 43.3 µM
- MIC [14]: ≥ 173 µM
- MIC [15]: 21.7 µM (≈ 32 µg/mL)
- MIC [16]: ≥ 43.3 µM
- MIC [17]: ≥ 43.3 µM
- MIC [18]: 10.8 µM (≈ 16 µg/mL)
- MIC [19]: 21.7 µM (≈ 32 µg/mL)
- MIC [8]: 21.7 µM (≈ 32 µg/mL)
- MIC [20]: 21.7 µM (≈ 32 µg/mL)
- MIC [9]: 21.7 µM (≈ 32 µg/mL)

SMILES: CC[C@H](C)[C@H](NC(=O)[C@H](CC(C)C)NC(=O)[C@@H]1CCCN1C(=O)[C@H](CC(C)C)NC(=O)[C@H](CCCCN)NC(=O)[C@H](CCCCN)NC(=O)[C@H](CC(C)C)NC(=O)[C@H](CC(C)C)NC(=O)[C@H](C)NC(=O)[C@@H](NC(=O)[C@H](Cc1ccccc1)NC(=O)CN)C(C)C)C(=O)N[C@@H](CC(C)C)C(=O)N[C@@H](CCCCN)C(=O)N[C@@H](Cc1cnc[nH]1)C(=O)N[C@@H](CC(C)C)C(=O)N[C@@H](Cc1cnc[nH]1)C(N)=O [GFVALLKKLPLILKHLH]
- MIC [21]: 3.75 µM (≈ 7.27 µg/mL)
- MIC [22]: 3.75 µM (≈ 7.27 µg/mL)
- MIC [23]: 7.5 µM (≈ 14.5 µg/mL)
- MIC [3]: 7.5 µM (≈ 14.5 µg/mL)
- MIC [24]: 15 µM (≈ 29.1 µg/mL)
- MIC [4]: 3.75 µM (≈ 7.27 µg/mL)
- MIC [25]: 3.12 µM (≈ 6.05 µg/mL)
- MIC [5]: 3.75 µM (≈ 7.27 µg/mL)
- MIC [26]: 1.9 µM (≈ 3.69 µg/mL)
- MIC [27]: 3.12 µM (≈ 6.05 µg/mL)
- MIC [28]: 30 µM (≈ 58.2 µg/mL)
- MIC [29]: 30 µM (≈ 58.2 µg/mL)
- MIC [30]: 7.5 µM (≈ 14.5 µg/mL)
- MIC [31]: 6.25 µM (≈ 12.1 µg/mL)
- MIC [17]: 3.75 µM (≈ 7.27 µg/mL)
- MIC [19]: 7.5 µM (≈ 14.5 µg/mL)
- MIC [32]: 3.75 µM (≈ 7.27 µg/mL)
- MIC [7]: 15 µM (≈ 29.1 µg/mL)
- MIC [33]: 1.57 µM (≈ 3.05 µg/mL)
- MIC [34]: 3.75 µM (≈ 7.27 µg/mL)
- MIC [35]: 3.75 µM (≈ 7.27 µg/mL)
- MIC [36]: 3.75 µM (≈ 7.27 µg/mL)

SMILES: CC[C@H](C)[C@H](NC(=O)CN)C(=O)NCC(=O)N[C@@H](CO)C(=O)N[C@@H](CCSC)C(=O)N[C@@H](CC(C)C)C(=O)N[C@@H](CC(C)C)C(=O)NCC(=O)N[C@@H](CC(C)C)C(=O)N[C@@H](C)C(=O)N[C@@H](CCCCN)C(=O)N[C@@H](CC(N)=O)C(=O)N[C@H](C(=O)NCC(=O)N[C@@H](CCSC)C(=O)N[C@@H](CO)C(=O)N[C@@H](CC(C)C)C(=O)N[C@@H](CC(C)C)C(=O)N[C@@H](CC(N)=O)C(=O)N[C@@H](CCCCN)C(=O)N[C@@H](C)C(=O)N[C@@H](CCC(N)=O)C(=O)N[C@H]1CSSC[C@@H](C(=O)O)NC(=O)[C@H](CCCCN)NC(=O)CNC(=O)[C@H](CO)NC(=O)[C@H]([C@@H](C)CC)NC(=O)[C@H](CCCCN)NC1=O)C(C)C [GIGSMLLGLAKNVGMSLLNKAQCKISGKC]
- MIC [37]: ≥ 51.1 µM
- MIC [38]: 13.6 µM (≈ 40 µg/mL)
- MIC [39]: ≥ 34.1 µM
- MIC [7]: > 51.1 µM
- MIC [40]: ≥ 51.1 µM

SMILES: CC(C)C[C@H](NC(=O)[C@H](CC(C)C)NC(=O)[C@H](CC(=O)O)NC(=O)[C@H](CC(N)=O)NC(=O)[C@H](CC(C)C)NC(=O)[C@H](CC(C)C)NC(=O)[C@H](CC(N)=O)NC(=O)CNC(=O)[C@@H](NC(=O)[C@H](CC(C)C)NC(=O)[C@@H]1CCCN1C(=O)[C@H](CC(C)C)NC(=O)[C@@H](N)C(C)C)C(C)C)C(=O)NCC(=O)N[C@@H](CCCCN)C(=O)O [VLPLVGNLLNDLLGK]
- MIC [41]: ≥ 63.4 µM
- MIC [4]: > 63.4 µM
- MIC [42]: > 63.4 µM
- MIC [30]: > 63.4 µM
- MIC [43]: ≥ 63.4 µM
- MIC [44]: ≥ 63.4 µM
- MIC [45]: > 63.4 µM
- MIC [46]: ≥ 63.4 µM
